Test results from patent publication US10111437B2, “Substituted guanidines as fungicides” (Nippon Soda Co., Ltd., priority 2015, dated 2018).

Legend:
[1] = test system: Tomato late blight fungus (Phytophthora infestans); assay: whole plant or invertebrate; type: in vivo; conditions: foliar, 96 h, read-out: control value
[2] = test system: cucumber gray mold fungus (Botrytis cinerea); assay: Cucumber gray mold control test (foliar spray on cucumber seedlings); conditions: in Cucumis sativus, 96 h, read-out: control value
[3] = test system: Apple scab fungus (Venturia inaequalis); assay: Apple scab control test (foliar spray on apple seedlings); type: in vivo; conditions: 125 ppm active ingredient, sprayed on apple seedlings (variety Orin) before inoculation, vs untreated
Protocol: The dilution was sprayed to apple seedlings (variety “Orin”, 3 to 4 leaf stage) grown in clay pots. […] The control value was calculated by the following equation. [formula]

[4] = test system: wheat leaf rust fungus (Puccinia recondita); assay: Wheat leaf rust control test (foliar spray on wheat seedlings); type: in vivo; conditions: 240 h, 125 ppm active ingredient, sprayed on wheat seedlings (variety Norin 61) before inoculation, 10 days, vs untreated

Measured: pest or weed control at 125 ppm

N=C(N)NCCCCCCCCNC(=N)NCCOc1ccc(C2=NCCCN2)cc1 [compound 240]
≥ 75%: all assays above

N=C(NCCCCOc1ccc(C(=N)N)cc1)NCCCCOc1ccc(C(=N)N)cc1 [compound 10, 4-[4-[[N-[4-(4-carbamimidoylphenoxy)butyl]carbamimidoyl]amino]butoxy]benzamidine]
≥ 75%: all assays above

N=C(N)NCCCCCCCCCNC(=N)NCCOc1ccc(C(=N)N)cc1 [compound 234]
≥ 75%: all assays above

N=C(N)NCCCCCCCCNC(=N)NCCOc1ccc(C2=NCCCN2)nc1 [compound 288]
≥ 75%: all assays above

N=C(N)NCCCCCCCNC(=N)NCCC=Cc1ccc(C(=N)N)cc1 [compound 163]
≥ 75%: all assays above

N=C(N)NCCCCCCCCNC(=N)NCCCOc1ccc(C2=NCCCN2)cc1 [compound 192]
≥ 75%: all assays above

N=C(N)NCCCCCCNC(=N)NCCCCOc1ccc(C(=N)N)cc1 [compound 136]
≥ 75%: all assays above

Cc1c(C)n(CCCOc2ccc(C(=N)N)cc2)c(=N)n1CCCOc1ccc(C(=N)N)cc1 [compound 109]
≥ 75%: all assays above

N=C(N)NCCCCCCCNC(=N)NCCCOCc1ccc(C(=N)N)cc1 [compound 179]
≥ 75%: all assays above

Cc1cn(CCCCOc2ccc(C(=N)N)cc2)c(=N)n1CCCCOc1ccc(C(=N)N)cc1 [compound 107]
≥ 75%: all assays above

N=C(N)NCCCCCCCn1ccn(CCCCOc2ccc(C(=N)N)cc2)c1=N [compound 52, 4-[4-[3-(7-guanidinoheptyl)-2-imino-imidazol-1-yl]butoxy]benzamidine]
≥ 75%: all assays above

Cc1cn(CCCOc2ccc(C(=N)N)cc2)c(=N)n1CCCOc1ccc(C(=N)N)cc1 [compound 114]
≥ 75%: all assays above

N=C(N)NCCCCCCCNC(=N)NCCCCOc1ccc(C(=N)N)cn1 [compound 32, 6-(4-(3-(7-guanidinoheptyl)guanidino)butoxy)nicotinimidamide]
≥ 75%: all assays above

N=C(N)NCCCCCCCCNC(=N)NCCCCOc1ccc(C2=NCCCN2)cn1 [compound 275]
≥ 75%: all assays above

N=C(N)NCCCCCCCCNC(=N)NCCOc1ccc(C2=NCC(N)CN2)cc1 (centres unmarked) [compound 285]
≥ 75%: all assays above

N=C(N)NCCCCCCCCNC(=N)NCCc1ccc(C2=NCCCN2)cc1 [compound 266]
≥ 75%: all assays above

N=C(N)NCCCCCCCNC(=N)NCCCSc1ccc(C(=N)N)cc1 [compound 177]
≥ 75%: all assays above

N=C(N)NCCCCCCCCCNC(=N)NCCOc1ccc(C2=NCCCN2)cc1 [compound 242]
≥ 75%: all assays above

N=C(NCCCC#Cc1ccc(C(=N)N)cc1)NCCCC#Cc1ccc(C(=N)N)cc1 [compound 22, 4-[5-[[N-[5-(4-carbamimidoylphenyl)pent-4-ynyl]carbamimidoyl]amino]pent-1-ynyl]benzamidine]
≥ 75%: all assays above

N=C(N)c1ccc(OCCCn2ccn(CCCSc3ccc(C(=N)N)cc3)c2=N)cc1 [compound 173]
≥ 75%: all assays above

CN(CCCOc1ccc(C(=N)N)cc1)C(=N)NCCCCCCCCNC(=N)N [compound 128]
≥ 75%: all assays above

N=C(N)NCCCCCCCNC(=N)NCCCCOc1ccc(C2=NCC(N)CN2)cc1 (centres unmarked) [compound 277]
≥ 75%: all assays above

N=C(N)NCCCCCCCCn1ccn(CCCOc2ccc(C3=NCCCN3)cc2)c1=N [compound 184]
≥ 75%: all assays above

N=C(N)NCCCCCCCCNC(=N)NCC#Cc1ccc(C(=N)N)cc1 [compound 165]
≥ 75%: all assays above

CN(CCCCCCCCNC(=N)N)C(=N)NCCCOc1ccc(C(=N)N)cc1 [compound 140]
≥ 75%: all assays above

N=C(NCCCOc1ccc(C(=N)N)cc1)NCCCOc1ccc(C(=N)N)cc1 [compound 42, 4-[3-[[N-[3-(4-carbamimidoylphenoxy)propyl]carbamimidoyl]amino]propoxy]benzamidine]
≥ 75%: all assays above

N=C(N)NCCCCCCCCn1ccn(CCOc2ccc(C3=NCCCN3)cc2)c1=N [compound 270]
≥ 75%: [1] | [3] | [4]

N=C(N)c1ccc(OCCCn2ccn(CCCOc3ccc(C(=N)N)cc3)c2=N)cc1 [compound 89]
≥ 75%: [1] | [3] | [4]
